How the values were obtained:
AVEFA [1] = assay: Pre-emergence action against AVEFA; format: in vivo, Avena fatua; conditions: dosage 320 g/ha, scored visually after 3 weeks vs untreated controls
In short: (§1)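 Seeds sown in sandy loam in wood-fiber pots and covered with soil. Greenhouse growth; visual damage scored after 3 weeks versus untreated controls (100% = dead, 0% = like control).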

CYPES [2] = assay: Pre-emergence action against CYPES; format: in vivo, Cyperus esculentus; conditions: pre-emergence, dosage 320 g/ha, scored visually after 3 weeks vs untreated controls
In short: as §1

ECHCG [3] = assay: Pre-emergence action against ECHCG; format: in vivo, Echinochloa crus-galli; conditions: pre-emergence, dosage 320 g/ha, scored visually after 3 weeks vs untreated controls
In short: as §1

SETVI [4] = assay: Pre-emergence action against SETVI; format: in vivo, Setaria viridis; conditions: pre-emergence, dosage 320 g/ha, scored visually after 3 weeks vs untreated controls
In short: as §1

ABUTH [5] = assay: Pre-emergence action against ABUTH; format: in vivo, Abutilon theophrasti; conditions: pre-emergence, dosage 320 g/ha, scored visually after 3 weeks vs untreated controls
In short: as §1

AMARE [6] = assay: Pre-emergence action against AMARE; format: in vivo, Amaranthus retroflexus; conditions: pre-emergence, dosage 320 g/ha, scored visually after 3 weeks vs untreated controls
In short: as §1

MATIN [7] = assay: Pre-emergence action against MATIN; format: in vivo, Matricaria inodora; conditions: Dosage 320 g/ha, pre-emergence
In short: as §1

PHBPU [8] = assay: Pre-emergence action against PHBPU; format: in vivo, Pharbitis purpurea; conditions: Dosage 320 g/ha, pre-emergence
In short: as §1

STEME [9] = assay: Pre-emergence action against STEME; format: in vivo, Stellaria media; conditions: Dosage 320 g/ha, pre-emergence
In short: as §1

VIOTR [10] = assay: Pre-emergence action against VIOTR; format: in vivo, Viola tricolor; conditions: Dosage 320 g/ha, pre-emergence
In short: as §1

VERPE [11] = assay: Pre-emergence action against VERPE; format: in vivo, Veronica persica; conditions: Dosage 320 g/ha, pre-emergence
In short: as §1

AVEFA [12] = assay: Post-emergence action against AVEFA; format: in vivo, Avena fatua; conditions: post-emergence, dosage 80 g/ha, visual assessment about 3 weeks after treatment vs untreated controls
Description: Seeds of monocotyledonous and dicotyledonous weed and crop plants are laid out in sandy loam soil in wood-fiber pots, covered with soil and cultivated in a greenhouse under good growth conditions. 2 to 3 weeks after sowing, the test plants are treated at the one-leaf stage. The compounds of the invention, formulated in the form of wettable powders (WP) or as emulsion concentrates (EC), are then sprayed onto the green parts of the plants in the form of an aqueous suspension or emulsion at a water application rate equating to […], with addition of 0.2% wetting agent. After the test plants have been left to stand in the greenhouse under optimal growth conditions for about 3 weeks, the action of the preparations is assessed visually in comparison to untreated controls (herbicidal action in percent (%): 100% activity=the plants have died, 0% activity=like control plants). […] At the same time, inventive compounds leave Gramineae crops such as barley, wheat, rye, millet/Sorghum, corn or rice virtually undamaged when applied post-emergence, even at high active ingredient dosages. In addition, some substances are also harmless to dicotyledonous crops such as soya, cotton, oilseed rape, sugar beet or potatoes. Some of the compounds according to the invention have high selectivity and are therefore suitable for controlling unwanted vegetation in agricultural crops by the post-emergence method. The data of Tables B18 to B34 below illustrate, in an exemplary manner, the […] herbicidal action of the compounds according to the invention, the herbicidal activity being stated in percent.

CYPES [13] = assay: Post-emergence action against CYPES; format: in vivo, Cyperus esculentus; conditions: post-emergence, dosage 80 g/ha, visual assessment about 3 weeks after treatment vs untreated controls
In short: (§2)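 Post-emergence foliar spray on greenhouse plants at the one-leaf stage, using wettable-powder or emulsion-concentrate formulations in water (600 to […], plus 0.2% wetting agent). Damage scored by eye roughly 3 weeks later against untreated plants: 0% = like control, 100% = dead.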

ECHCG [14] = assay: Post-emergence action against ECHCG; format: in vivo, Echinochloa crus-galli; conditions: post-emergence, dosage 80 g/ha, visual assessment about 3 weeks after treatment vs untreated controls
In short: as §2

SETVI [15] = assay: Post-emergence action against SETVI; format: in vivo, Setaria viridis; conditions: post-emergence, dosage 80 g/ha, visual assessment about 3 weeks after treatment vs untreated controls
In short: as §2

ABUTH [16] = assay: Post-emergence action against ABUTH; format: in vivo, Abutilon theophrasti; conditions: post-emergence, dosage 80 g/ha, visual assessment about 3 weeks after treatment vs untreated controls
In short: as §2

AMARE [17] = assay: Post-emergence action against AMARE; format: in vivo, Amaranthus retroflexus; conditions: post-emergence, dosage 80 g/ha, visual assessment about 3 weeks after treatment vs untreated controls
In short: as §2

MATIN [18] = assay: Post-emergence action against MATIN; format: in vivo, Matricaria inodora; conditions: post-emergence, dosage 80 g/ha, visual assessment about 3 weeks after treatment vs untreated controls
In short: as §2

PHBPU [19] = assay: Post-emergence action against PHBPU; format: in vivo, Pharbitis purpurea; conditions: post-emergence, dosage 80 g/ha
In short: as §2

STEME [20] = assay: Post-emergence action against STEME; format: in vivo, Stellaria media; conditions: post-emergence, dosage 80 g/ha
In short: as §2

VIOTR [21] = assay: Post-emergence action against VIOTR; format: in vivo, Viola tricolor; conditions: post-emergence, dosage 80 g/ha
In short: as §2

VERPE [22] = assay: Post-emergence action against VERPE; format: in vivo, Veronica persica; conditions: dosage 80 g/ha
In short: as §2

POLCO [23] = assay: Pre-emergence action against POLCO; format: in vivo, Polygonum convolvulus; conditions: Dosage 320 g/ha, pre-emergence
In short: as §1

ALOMY = assay: Pre-emergence action against ALOMY; format: in vivo, Alopecurus myosuroides; conditions: dosage 320 g/ha; pre-emergence; scored visually after 3 weeks vs untreated controls; 100% = plants have died, 0% = like control plants
In short: as §1

POLCO [24] = assay: Post-emergence action against POLCO; format: in vivo, Polygonum convolvulus; conditions: post-emergence, dosage 80 g/ha
In short: as §2

SMILES: CCn1nnnc1NC(=O)c1ccc(S(C)(=O)=O)c(C(C)=O)c1Cl [2-127]
- Pre-emergence action against AVEFA (herbicidal activity) (AVEFA [1]): 90%
- Pre-emergence action against CYPES (herbicidal activity) (CYPES [2]): 90%
- Pre-emergence action against ECHCG (herbicidal activity) (ECHCG [3]): 100%
- SETVI (Table B8, pre-emergence herbicidal activity) (SETVI [4]): 90%
- Pre-emergence action against ABUTH (herbicidal activity) (ABUTH [5]): 100%
- Pre-emergence action against AMARE (herbicidal activity) (AMARE [6]): 100%
- Pre-emergence action against MATIN (MATIN [7]): 100%
- Pre-emergence action against PHBPU (PHBPU [8]): 90%
- Pre-emergence action against STEME (STEME [9]): 90%
- Pre-emergence action against VIOTR (VIOTR [10]): 100%
- Pre-emergence action against VERPE (VERPE [11]): 100%
- Post-emergence action against AVEFA (herbicidal action in percent) (AVEFA [12]): 90%
- Post-emergence action against CYPES (herbicidal action in percent) (CYPES [13]): 90%
- Post-emergence action against ECHCG (herbicidal action in percent) (ECHCG [14]): 100%
- Post-emergence action against SETVI (herbicidal action in percent) (SETVI [15]): 90%
- Post-emergence action against ABUTH (herbicidal action in percent) (ABUTH [16]): 100%
- Post-emergence action against AMARE (herbicidal action in percent) (AMARE [17]): 100%
- Post-emergence action against MATIN (herbicidal action in percent) (MATIN [18]): 90%
- Post-emergence action against PHBPU (PHBPU [19]): 100
- Post-emergence action against STEME (STEME [20]): 100
- Post-emergence action against VIOTR (VIOTR [21]): 100
- Post-emergence action against VERPE (VERPE [22]): 100

SMILES: CCCn1nnnc1NC(=O)c1ccc(S(C)(=O)=O)c(C(=O)C2CC2)c1C [3-9]
- Pre-emergence action against AVEFA (herbicidal activity) (AVEFA [1]): 90%
- Pre-emergence action against ECHCG (herbicidal activity) (ECHCG [3]): 100%
- SETVI (Table B8, pre-emergence herbicidal activity) (SETVI [4]): 100%
- Pre-emergence action against ABUTH (herbicidal activity) (ABUTH [5]): 100%
- Pre-emergence action against AMARE (herbicidal activity) (AMARE [6]): 100%
- Pre-emergence action against MATIN (MATIN [7]): 90%
- Pre-emergence action against POLCO (POLCO [23]): 80%
- Pre-emergence action against VIOTR (VIOTR [10]): 100%
- Post-emergence action against AVEFA (herbicidal action in percent) (AVEFA [12]): 100%
- Post-emergence action against CYPES (herbicidal action in percent) (CYPES [13]): 80%
- Post-emergence action against ECHCG (herbicidal action in percent) (ECHCG [14]): 100%
- Post-emergence action against SETVI (herbicidal action in percent) (SETVI [15]): 100%
- Post-emergence action against ABUTH (herbicidal action in percent) (ABUTH [16]): 80%
- Post-emergence action against AMARE (herbicidal action in percent) (AMARE [17]): 100%
- Post-emergence action against MATIN (herbicidal action in percent) (MATIN [18]): 100%
- Post-emergence action against PHBPU (PHBPU [19]): 100
- Post-emergence action against STEME (STEME [20]): 100
- Post-emergence action against VIOTR (VIOTR [21]): 100
- Post-emergence action against VERPE (VERPE [22]): 100

SMILES: CCCn1nnnc1NC(=O)c1ccc(C(F)(F)F)c(C(C)=O)c1OC [3-48]
- Pre-emergence action against ALOMY (herbicidal activity in percent) (ALOMY): 90%
- Pre-emergence action against CYPES (herbicidal activity) (CYPES [2]): 90%
- Pre-emergence action against ECHCG (herbicidal activity) (ECHCG [3]): 100%
- SETVI (Table B8, pre-emergence herbicidal activity) (SETVI [4]): 100%
- Pre-emergence action against ABUTH (herbicidal activity) (ABUTH [5]): 100%
- Pre-emergence action against AMARE (herbicidal activity) (AMARE [6]): 100%
- Pre-emergence action against MATIN (MATIN [7]): 100%
- Pre-emergence action against PHBPU (PHBPU [8]): 80%
- Pre-emergence action against POLCO (POLCO [23]): 80%
- Pre-emergence action against STEME (STEME [9]): 90%
- Pre-emergence action against VIOTR (VIOTR [10]): 100%
- Pre-emergence action against VERPE (VERPE [11]): 90%
- Post-emergence action against CYPES (herbicidal action in percent) (CYPES [13]): 90%
- Post-emergence action against ECHCG (herbicidal action in percent) (ECHCG [14]): 90%
- Post-emergence action against SETVI (herbicidal action in percent) (SETVI [15]): 80%
- Post-emergence action against ABUTH (herbicidal action in percent) (ABUTH [16]): 100%
- Post-emergence action against MATIN (herbicidal action in percent) (MATIN [18]): 100%
- Post-emergence action against PHBPU (PHBPU [19]): 100
- Post-emergence action against POLCO (POLCO [24]): 80
- Post-emergence action against STEME (STEME [20]): 100
- Post-emergence action against VIOTR (VIOTR [21]): 100
- Post-emergence action against VERPE (VERPE [22]): 80

SMILES: CCCn1nnnc1NC(=O)c1ccc(C(F)(F)F)c(C(C)=O)c1Br [3-195]
- Pre-emergence action against ALOMY (herbicidal activity in percent) (ALOMY): 80%
- Pre-emergence action against AVEFA (herbicidal activity) (AVEFA [1]): 90%
- Pre-emergence action against CYPES (herbicidal activity) (CYPES [2]): 90%
- Pre-emergence action against ECHCG (herbicidal activity) (ECHCG [3]): 100%
- SETVI (Table B8, pre-emergence herbicidal activity) (SETVI [4]): 100%
- Pre-emergence action against ABUTH (herbicidal activity) (ABUTH [5]): 100%
- Pre-emergence action against AMARE (herbicidal activity) (AMARE [6]): 100%
- Pre-emergence action against MATIN (MATIN [7]): 100%
- Pre-emergence action against PHBPU (PHBPU [8]): 90%
- Pre-emergence action against STEME (STEME [9]): 90%
- Pre-emergence action against VIOTR (VIOTR [10]): 100%
- Pre-emergence action against VERPE (VERPE [11]): 100%
- Post-emergence action against CYPES (herbicidal action in percent) (CYPES [13]): 80%
- Post-emergence action against ECHCG (herbicidal action in percent) (ECHCG [14]): 90%
- Post-emergence action against SETVI (herbicidal action in percent) (SETVI [15]): 90%
- Post-emergence action against MATIN (herbicidal action in percent) (MATIN [18]): 90%
- Post-emergence action against PHBPU (PHBPU [19]): 90
- Post-emergence action against POLCO (POLCO [24]): 90
- Post-emergence action against STEME (STEME [20]): 90
- Post-emergence action against VIOTR (VIOTR [21]): 90
